Experimental data reported in article PMC5218480 (PLoS ONE, 2017).

Tested on: MV-4-11 cells
Assay: Gene expression microarray analysis (Affymetrix PrimeView) and GSEA
Type: cell-based, human
Set-up: RFU PODN (11730768_x_at) / Fold change /veh PODN (11730768_x_at) / RFU LINC00158 (11744669_a_at) / Fold change /veh LINC00158 (11744669_a_at) / RFU DUSP10 (11751237_a_at) / Fold change /veh DUSP10 (11751237_a_at) / RFU ID3 (11757404_x_at) / Fold change /veh ID3 (11757404_x_at) / RFU PLEKHG5 (11737974_s_at) / Fold change /veh PLEKHG5 (11737974_s_at) / RFU LRRC4B (11730491_at) / Fold change /veh LRRC4B (11730491_at) / RFU GIMAP4 (11747438_a_at) / Fold change /veh GIMAP4 (11747438_a_at) / RFU KRT8 (11758183_x_at) / Fold change /veh KRT8 (11758183_x_at) / RFU CNN1 (11734310_a_at) / Fold change /veh CNN1 (11734310_a_at) / RFU VPS37D (11726825_at) / Fold change /veh VPS37D (11726825_at) / RFU C10orf10 (11716522_x_at) / Fold change /veh C10orf10 (11716522_x_at) / RFU KIR2DL2 /// KIR2DL4 /// KIR2DL5A /// KIR2DL5B /// KIR2DS1 /// KIR2DS2 /// KIR2DS3 /// KIR2DS4 /// KIR3DL3 /// KIR3DL3 /// KIR3DS1 (11738374_at) / Fold change /veh KIR2DL2 /// KIR2DL4 /// KIR2DL5A /// KIR2DL5B /// KIR2DS1 /// KIR2DS2 /// KIR2DS3 /// KIR2DS4 /// KIR3DL3 /// KIR3DL3 /// KIR3DS1 (11738374_at) / RFU C1QL1 (11718748_at) / Fold change /veh C1QL1 (11718748_at) / RFU TMPRSS4 (11747572_a_at) / Fold change /veh TMPRSS4 (11747572_a_at) / RFU HAMP (11756126_x_at) / Fold change /veh HAMP (11756126_x_at) / RFU RNFT2 (11725882_a_at) / Fold change /veh RNFT2 (11725882_a_at) / RFU NR4A2 (11747474_a_at) / Fold change /veh NR4A2 (11747474_a_at) / RFU ABCC12 (11746883_a_at) / Fold change /veh ABCC12 (11746883_a_at) / RFU TMEM136 (11760407_x_at) / Fold change /veh TMEM136 (11760407_x_at) / RFU CLDN22 /// WWC2 (11732394_at) / Fold change /veh CLDN22 /// WWC2 (11732394_at) / RFU HLA-DPB1 (11760878_x_at) / Fold change /veh HLA-DPB1 (11760878_x_at) / RFU SPINT1 (11716480_a_at) / Fold change /veh SPINT1 (11716480_a_at) / RFU GAP43 (11754022_s_at) / Fold change /veh GAP43 (11754022_s_at) / RFU A4GNT (11735810_at) / Fold change /veh A4GNT (11735810_at) / RFU PRB3 (11715151_x_at) / Fold change /veh PRB3 (11715151_x_at) / RFU TUBB4B (11761932_at) / Fold change /veh TUBB4B (11761932_at) / RFU CAPN14 (11732068_a_at) / Fold change /veh CAPN14 (11732068_a_at) / RFU TMCC2 (11721928_a_at) / Fold change /veh TMCC2 (11721928_a_at) / RFU IRGQ (11745062_a_at) / Fold change /veh IRGQ (11745062_a_at) / RFU FAM174B (11720279_a_at) / Fold change /veh FAM174B (11720279_a_at) / RFU TMPRSS4 (11748680_a_at) / Fold change /veh TMPRSS4 (11748680_a_at) / RFU FAM212B (11763350_a_at) / Fold change /veh FAM212B (11763350_a_at) / RFU PLEKHG5 (11743358_a_at) / Fold change /veh PLEKHG5 (11743358_a_at) / RFU ZSCAN30 (11745921_a_at) / Fold change /veh ZSCAN30 (11745921_a_at) / RFU CMKLR1 (11741424_a_at) / Fold change /veh CMKLR1 (11741424_a_at) / RFU LOC101060620 /// MAPK8IP1 (11723275_at) / Fold change /veh LOC101060620 /// MAPK8IP1 (11723275_at) / RFU SPTSSB (11747773_x_at) / Fold change /veh SPTSSB (11747773_x_at) / RFU PRSS12 (11739890_at) / Fold change /veh PRSS12 (11739890_at) / RFU BIN1 (11741810_x_at) / Fold change /veh BIN1 (11741810_x_at) / RFU WNT11 (11732464_a_at) / Fold change /veh WNT11 (11732464_a_at) / RFU C10orf10 (11716521_a_at) / Fold change /veh C10orf10 (11716521_a_at) / RFU C5orf56 (11738089_at) / Fold change /veh C5orf56 (11738089_at) / RFU CYB561 (11721691_x_at) / Fold change /veh CYB561 (11721691_x_at) / RFU ANKRD19P (11752326_a_at) / Fold change /veh ANKRD19P (11752326_a_at) / RFU OR2T12 /// OR2T33 /// OR2T8 (11738714_s_at) / Fold change /veh OR2T12 /// OR2T33 /// OR2T8 (11738714_s_at) / RFU VCAN (11748164_a_at) / Fold change /veh VCAN (11748164_a_at) / RFU JSRP1 (11732532_at) / Fold change /veh JSRP1 (11732532_at) / RFU KRTAP10-11 (11738290_x_at) / Fold change /veh KRTAP10-11 (11738290_x_at) / RFU MYO3A (11730013_a_at) / Fold change /veh MYO3A (11730013_a_at) / RFU EBF3 (11725865_a_at) / Fold change /veh EBF3 (11725865_a_at) / RFU CAMK2N1 (11719241_x_at) / Fold change /veh CAMK2N1 (11719241_x_at) / RFU C5orf56 (11738088_a_at) / Fold change /veh C5orf56 (11738088_a_at) / RFU OLFML3 (11715873_a_at) / Fold change /veh OLFML3 (11715873_a_at) / RFU LOC100653217 /// NTM (11731650_a_at) / Fold change /veh LOC100653217 /// NTM (11731650_a_at) / RFU MAPK11 (11762145_a_at) / Fold change /veh MAPK11 (11762145_a_at) / RFU FIZ1 (11724087_x_at) / Fold change /veh FIZ1 (11724087_x_at) / RFU OASL (11726364_x_at) / Fold change /veh OASL (11726364_x_at) / RFU SOX15 (11748057_x_at) / Fold change /veh SOX15 (11748057_x_at) / RFU CD79A (11719716_a_at) / Fold change /veh CD79A (11719716_a_at) / RFU HIST1H1D (11736915_at) / Fold change /veh HIST1H1D (11736915_at) / RFU CASKIN2 (11723855_a_at) / Fold change /veh CASKIN2 (11723855_a_at) / RFU LOC730098 (11760151_x_at) / Fold change /veh LOC730098 (11760151_x_at) / RFU OR4N2 (11742367_at) / Fold change /veh OR4N2 (11742367_at) / RFU PRRT2 (11749266_a_at) / Fold change /veh PRRT2 (11749266_a_at) / RFU SNX32 (11753110_a_at) / Fold change /veh SNX32 (11753110_a_at) / RFU CDHR5 (11726645_a_at) / Fold change /veh CDHR5 (11726645_a_at) / RFU RCAN1 (11760418_a_at) / Fold change /veh RCAN1 (11760418_a_at) / RFU FAM167A (11723789_a_at) / Fold change /veh FAM167A (11723789_a_at) / RFU FAM26E (11764081_at) / Fold change /veh FAM26E (11764081_at) / RFU ISYNA1 (11749810_s_at) / Fold change /veh ISYNA1 (11749810_s_at) / RFU ACY1 (11761880_at) / Fold change /veh ACY1 (11761880_at) / RFU 11764098_at / Fold change /veh 11764098_at / RFU SAMD14 (11745864_x_at) / Fold change /veh SAMD14 (11745864_x_at) / RFU NPB (11741838_a_at) / Fold change /veh NPB (11741838_a_at) / RFU TMPRSS6 (11731388_a_at) / Fold change /veh TMPRSS6 (11731388_a_at) / RFU KRTAP10-2 (11738614_at) / Fold change /veh KRTAP10-2 (11738614_at) / RFU ARHGAP8 /// PRR5-ARHGAP8 (11727945_x_at) / Fold change /veh ARHGAP8 /// PRR5-ARHGAP8 (11727945_x_at) / RFU KRTAP5-7 /// NADSYN1 (11734609_at) / Fold change /veh KRTAP5-7 /// NADSYN1 (11734609_at) / RFU RASL12 (11751679_a_at) / Fold change /veh RASL12 (11751679_a_at) / RFU CDKN2B (11736163_a_at) / Fold change /veh CDKN2B (11736163_a_at) / RFU PRF1 (11729649_at) / Fold change /veh PRF1 (11729649_at) / RFU, ZNF638 /// ZNF638-IT1 / Fold change vs veh, ZNF638 /// ZNF638-IT1 / RFU, PANK3 / Fold change vs veh, PANK3 / RFU, SH3YL1 / Fold change vs veh, SH3YL1 / RFU, ZEB2 / Fold change vs veh, ZEB2 / RFU, NRIP1 / Fold change vs veh, NRIP1 / RFU, PTTG1IP / Fold change vs veh, PTTG1IP / RFU, CAPN2 / Fold change vs veh, CAPN2 / RFU, MED14 / Fold change vs veh, MED14 / RFU, SNORA58 / Fold change vs veh, SNORA58 / RFU, C1orf63 / Fold change vs veh, C1orf63 / RFU, LRRFIP1 / Fold change vs veh, LRRFIP1 / RFU, NDUFAF7 / Fold change vs veh, NDUFAF7 / RFU, SLC12A2 / Fold change vs veh, SLC12A2 / RFU, IBTK / Fold change vs veh, IBTK / RFU, ESF1 / Fold change vs veh, ESF1 / Fold change vs veh, TMEM50B / RFU, TAOK1 / Fold change vs veh, TAOK1 / RFU, ACBD3 / Fold change vs veh, ACBD3 / RFU, TMA16 / Fold change vs veh, TMA16 / RFU, RWDD3 / Fold change vs veh, RWDD3 / RFU, BCAT1 / Fold change vs veh, BCAT1 / RFU, EDEM3 / Fold change vs veh, EDEM3 / RFU, TMEM33 / Fold change vs veh, TMEM33 / RFU, WDR75 / Fold change vs veh, WDR75 / RFU, AHCTF1 / Fold change vs veh, AHCTF1 / RFU, TFRC / Fold change vs veh, TFRC / RFU, ZDHHC17 / Fold change vs veh, ZDHHC17 / RFU, NOM1 / Fold change vs veh, NOM1 / RFU, ARL8B / Fold change vs veh, ARL8B / RFU, ZBTB11 / Fold change vs veh, ZBTB11 / RFU, TAMM41 / Fold change vs veh, TAMM41 / RFU, KIAA1704 /// LOC100996395 / Fold change vs veh, KIAA1704 /// LOC100996395 / RFU, ING1 / Fold change vs veh, ING1 / RFU, TRMT61B / Fold change vs veh, TRMT61B / RFU, FUBP3 / Fold change vs veh, FUBP3 / RFU, TP53 / Fold change vs veh, TP53 / RFU, TNKS2 / Fold change vs veh, TNKS2 / RFU, ZFP14 / Fold change vs veh, ZFP14 / RFU, ACTR2 / Fold change vs veh, ACTR2 / RFU, PPP3R1 / Fold change vs veh, PPP3R1 / RFU, PIK3R1 / Fold change vs veh, PIK3R1 / RFU, HNRNPA1 / Fold change vs veh, HNRNPA1 / RFU, RNF170 / Fold change vs veh, RNF170 / RFU, ZNF28 / Fold change vs veh, ZNF28 / RFU, RNGTT / Fold change vs veh, RNGTT / RFU, OGT / Fold change vs veh, OGT / RFU, BRD1 / Fold change vs veh, BRD1 / RFU, MARS / Fold change vs veh, MARS / RFU, ZNF655 / Fold change vs veh, ZNF655 / RFU, FAHD1 / Fold change vs veh, FAHD1 / RFU, BDP1 / Fold change vs veh, BDP1 / RFU, LRRCC1 / Fold change vs veh, LRRCC1 / RFU, ARID1A / Fold change vs veh, ARID1A / RFU, ZNF146 / Fold change vs veh, ZNF146 / RFU, ZNF330 / Fold change vs veh, ZNF330 / RFU, GPN3 / Fold change vs veh, GPN3 / RFU, C9orf123 / Fold change vs veh, C9orf123 / RFU, N4BP2L2 / Fold change vs veh, N4BP2L2 / RFU, ARFIP1 / Fold change vs veh, ARFIP1 / RFU, FAM179B / Fold change vs veh, FAM179B / RFU, BCL10 / Fold change vs veh, BCL10 / RFU, UHRF1BP1L / Fold change vs veh, UHRF1BP1L / RFU, BET1 / Fold change vs veh, BET1 / RFU, CNOT2 / Fold change vs veh, CNOT2 / RFU, ZNF268 / Fold change vs veh, ZNF268 / Fold change vs veh, ZNF507 / RFU, DGCR2 / Fold change vs veh, DGCR2 / RFU, WDSUB1 / Fold change vs veh, WDSUB1 / Fold change vs veh, HSP90B1 /// MIR3652 / RFU, ADSS / Fold change vs veh, ADSS / RFU, GK / Fold change vs veh, GK / RFU, ZNF148 / Fold change vs veh, ZNF148 / RFU, TAF9 / Fold change vs veh, TAF9 / RFU, SLC1A5 / Fold change vs veh, SLC1A5 / RFU, SLMO2 / Fold change vs veh, SLMO2 / RFU, ABCC4 / Fold change vs veh, ABCC4 / RFU, LOC101060439 /// RAP1B / Fold change vs veh, LOC101060439 /// RAP1B / RFU, RFX7 / Fold change vs veh, RFX7 / RFU, GTPBP10 / Fold change vs veh, GTPBP10 / RFU, CNEP1R1 / Fold change vs veh, CNEP1R1 / RFU, BIVM-ERCC5 /// ERCC5 / Fold change vs veh, BIVM-ERCC5 /// ERCC5 / RFU, ILF3 / Fold change vs veh, ILF3 / RFU 11762660_at / Fold change /veh 11762660_at / RFU VCAN (11757783_s_at) / Fold change /veh VCAN (11757783_s_at) / RFU DDX43 (11728927_at) / Fold change /veh DDX43 (11728927_at) / RFU KRT8 (11758188_x_at) / Fold change /veh KRT8 (11758188_x_at) / RFU NKD1 (11759106_at) / Fold change /veh NKD1 (11759106_at) / RFU SRD5A1 (11742802_a_at) / Fold change /veh SRD5A1 (11742802_a_at) / RFU TPSAB1 /// TPSB2 (11721975_s_at) / Fold change /veh TPSAB1 /// TPSB2 (11721975_s_at) / RFU GSTM3 (11746129_a_at) / Fold change /veh GSTM3 (11746129_a_at) / RFU IL23R (11737362_x_at) / Fold change /veh IL23R (11737362_x_at) / RFU TMEM51 (11727254_a_at) / Fold change /veh TMEM51 (11727254_a_at) / RFU PIWIL2 (11732686_x_at) / Fold change /veh PIWIL2 (11732686_x_at) / RFU ORM1 (11744905_x_at) / Fold change /veh ORM1 (11744905_x_at) / RFU CCDC152 (11743942_at) / Fold change /veh CCDC152 (11743942_at) / RFU ECM1 (11717891_a_at) / Fold change /veh ECM1 (11717891_a_at) / RFU IL23R (11748794_a_at) / Fold change /veh IL23R (11748794_a_at) / RFU TNFAIP8L3 (11732012_x_at) / Fold change /veh TNFAIP8L3 (11732012_x_at) / RFU MBOAT4 (11741988_at) / Fold change /veh MBOAT4 (11741988_at) / RFU 11764193_at / Fold change /veh 11764193_at / RFU TMEM53 (11763286_at) / Fold change /veh TMEM53 (11763286_at) / RFU MAGEB2 (11727129_at) / Fold change /veh MAGEB2 (11727129_at) / RFU TMEM200A (11744735_a_at) / Fold change /veh TMEM200A (11744735_a_at) / RFU CCDC152 (11751479_a_at) / Fold change /veh CCDC152 (11751479_a_at) / RFU FAM211A (11726209_a_at) / Fold change /veh FAM211A (11726209_a_at) / RFU RGS16 (11746705_a_at) / Fold change /veh RGS16 (11746705_a_at) / RFU VCAN (11755009_s_at) / Fold change /veh VCAN (11755009_s_at) / RFU RHOB (11743442_s_at) / Fold change /veh RHOB (11743442_s_at) / RFU RGS16 (11720943_a_at) / Fold change /veh RGS16 (11720943_a_at) / RFU RGS16 (11720944_at) / Fold change /veh RGS16 (11720944_at) / RFU, VPS4B / Fold change vs veh, VPS4B / RFU, CREB1 / Fold change vs veh, CREB1 / RFU, DNAJC13 / Fold change vs veh, DNAJC13 / RFU, GNAQ / Fold change vs veh, GNAQ / RFU, CDK5R1 / Fold change vs veh, CDK5R1 / RFU, ZRANB3 / Fold change vs veh, ZRANB3 / RFU, CUL4A / Fold change vs veh, CUL4A / RFU, CCNY / Fold change vs veh, CCNY / RFU, UFL1 / Fold change vs veh, UFL1 / RFU, COG3 / Fold change vs veh, COG3 / RFU, DIAPH2 / Fold change vs veh, DIAPH2 / RFU, SKA2 / Fold change vs veh, SKA2 / RFU, AFF3 / Fold change vs veh, AFF3 / RFU, LMF1 / Fold change vs veh, LMF1 / RFU, IPO11 / Fold change vs veh, IPO11 / RFU, DFFB / Fold change vs veh, DFFB / RFU, FOXP1 / Fold change vs veh, FOXP1 / RFU, CARD8 / Fold change vs veh, CARD8 / RFU, STRN3 / Fold change vs veh, STRN3 / RFU, ADK / Fold change vs veh, ADK / RFU, RASSF2 / Fold change vs veh, RASSF2 / RFU, WIPF1 / Fold change vs veh, WIPF1 / RFU, LARP1B / Fold change vs veh, LARP1B / RFU, RASA1 / Fold change vs veh, RASA1 / RFU, RB1 / Fold change vs veh, RB1 / RFU, PPFIA1 / Fold change vs veh, PPFIA1 / RFU, MAT2A / Fold change vs veh, MAT2A / RFU, CCT5 / Fold change vs veh, CCT5 / RFU, WDR92 / Fold change vs veh, WDR92 / RFU, CUX1 / Fold change vs veh, CUX1 / RFU, TTC7A / Fold change vs veh, TTC7A / RFU, TMEM135 / Fold change vs veh, TMEM135 / RFU, DEPTOR / Fold change vs veh, DEPTOR / RFU, CPM / Fold change vs veh, CPM / RFU, DNAJB6 / Fold change vs veh, DNAJB6 / RFU, CACNA2D3 / Fold change vs veh, CACNA2D3 / RFU, DTX4 / Fold change vs veh, DTX4 / RFU, TFCP2 / Fold change vs veh, TFCP2 / RFU, GMCL1 /// GMCL1P1 / Fold change vs veh, GMCL1 /// GMCL1P1 / RFU, AEBP2 / Fold change vs veh, AEBP2 / RFU, SNHG1 /// SNORD22 /// SNORD25 /// SNORD26 /// SNORD27 /// SNORD28 /// SNORD29 /// SNORD31 / Fold change vs veh, SNHG1 /// SNORD22 /// SNORD25 /// SNORD26 /// SNORD27 /// SNORD28 /// SNORD29 /// SNORD31 / Fold change (Aza/veh), C12orf56 (ProbeSet 11735607_a_at) / Fold change (ACY-1035/veh), C12orf56 (ProbeSet 11735607_a_at) / Fold change (Aza/veh), FGFR1OP (ProbeSet 11751329_s_at) / Fold change (ACY-1035/veh), FGFR1OP (ProbeSet 11751329_s_at) / Fold change (Aza/veh), VPS36 (ProbeSet 11739960_a_at) / Fold change (ACY-1035/veh), VPS36 (ProbeSet 11739960_a_at) / RFU SYPL1 (11715823_x_at) / Fold change /veh SYPL1 (11715823_x_at) / RFU IGFBP7 (11715501_s_at) / Fold change /veh IGFBP7 (11715501_s_at) / RFU REEP3 (11722064_at) / Fold change /veh REEP3 (11722064_at) / RFU IGLL1 (11728026_x_at) / Fold change /veh IGLL1 (11728026_x_at): dose or concentration left out as unconfirmed
Details: ProbeSet 11743286_at; LIST D

Nc1ncn([C@@H]2O[C@H](CO)[C@@H](O)[C@H]2O)c(=O)n1 [azacitidine]
Fold change vs veh, DTX4: 0.59
